Assay results published in paper PMC4979060, “Structural basis of metallo-β-lactamase, serine-β-lactamase and penicillin-binding protein inhibition by cyclic boronates” (Nature Communications, 2016).

Experiments:
M67C NDM-1 = M67C NDM-1 (Klebsiella pneumoniae, UniProt C7C422, M67C); assay: 19F-protein NMR binding study; details: M67C NDM-1 labelled with 1,1,1-trifluoro-3-bromo acetone
Description: (§1) Kinetic and inhibition analyses, and ^19F NMR studies[10] against bacterial β-lactamases were performed as described. The FC-5 cephalosporin[9] was used as substrate for BcII, VIM-2, IMP-1, NDM-1, SPM-1, TEM-1 and OXA-10, meropenem[28] for CphA and nitrocefin[34] for PBP 3 and PBP 5.
Supplementary Fig. 1. 19F NMR analyses of the NDM-1*-di-Zn(II)-2 complex. Titration using 2 gave rise to a new signal corresponding to a 2-NDM-1* complex, even at low concentrations of 2 indicating tight binding; at a 1:1, enzyme:inhibitor ratio (NDM-1*:2) no signals corresponding to uncomplexed NDM-1* species were observed. NDM-1* = NDM-1 M67C variant modified by reaction with BrCH COCF 1.
Supplementary Fig. 2. Cytotoxicity of 1,2 and Staurosporine (a control) using HEK293 cells.
(also on this page, place not known: enzyme: inhibitor NDM -1 BrCH2COCF3 -2 -1 0 1 0.5 1.0 1.5 - Log concentration (µM) Abs 490 HEK293 - 2 HEK293 - 1 Staurosporine HEK293) […]

E. coli IR60 = assay: MIC by broth microdilution; type: cell-based; details: Escherichia coli, IR60, read-out: 2 MIC
Description: (§2) Bacterial strains: E. coli ATCC 25922 (ref. [35]) and K. pneumoniae NCTC 5055 (ref. [36]) were used as reference strains. K. pneumoniae Ecl8 (ref. [16]) and its ramR knock-out[37] were used as previously described. K. pneumoniae strain IR8 (ref. [40]), and E. coli strains IR10 and IR60 (ref. [17]) were generous gifts of Prof. T.R. Walsh. Plasmid pSU18:NDM-1 contains the complete blaNDM-1 open reading frame, together with its promoter, cloned into plasmid pSU18 (ref. [41]). The recombinant plasmid was made by PCR amplifying the blaNDM-1 gene and surrounding sequences from E. coli IR10 with primers NDM1F 5′- […] -3′ and NDM1R 5′- GGCGATGACAGCATCATC -3′, TA cloning the amplicon into pCR2.1 TOPO (Invitrogen) and subcloning into pSU18 using BamHI and XbaI.
(§3) MIC values were determined by broth microdilution, in triplicate, in cation-adjusted Mueller Hinton broth (Sigma) according to the Clinical Laboratory Standards Institute (CLSI) guidelines. Experiments were carried out in microtitre plates (Corning) containing the medium plus meropenem (Sequoia Research Products, Pangbourne, UK) and/or inhibitor 2 as appropriate. Chloramphenicol (20 μg ml^−1) was included in assays of strains (K. pneumoniae Ecl8 and derivative) that carried pSU18 plasmids or derivatives (pSU18:NDM-1) to ensure maintenance of plasmids throughout. Inhibitor 2 was dissolved in DMSO to 100 mg ml^−1 and diluted in broth. The final concentration of DMSO in the assays was kept constant at 0.01% (experiments using 10 μg ml^−1 inhibitor) or 0.03% (experiments using 25 μg ml^−1 inhibitor). Plates were incubated overnight at 37 °C for 18–24 h and absorbance at 600 nm read using a Polarstar Omega (BMG LabTech) plate reader.

[1] = tested on: K pneumoniae Ecl8 ΔramR pSU18:NDM-1; assay: MIC by broth microdilution; type: cell-based; details: Klebsiella pneumoniae, read-out: 2 MIC, 2 alone; Ecl8 ΔramR pSU18:NDM-1 (blaSHV-1; blaNDM-1)
Description: as §2, §3

[2] = tested on: K pneumoniae Ecl8 ΔramR pSU18; assay: MIC by broth microdilution; type: cell-based; details: Klebsiella pneumoniae, read-out: 2 MIC
Description: as §2, §3

K. pneumoniae Ecl8 pSU18 = assay: MIC by broth microdilution; type: cell-based; details: Klebsiella pneumoniae, ECL8PSU18, read-out: 2 MIC
Description: as §2, §3

E. coli IR10 = assay: MIC by broth microdilution; type: cell-based; details: Escherichia coli, IR10, read-out: 2 MIC
Description: as §2, §3

K. pneumoniae NCTC 5055 = assay: MIC by broth microdilution; type: cell-based; details: data not shown
Description: as §2, §3

E. coli ATCC 25922 = assay: MIC by broth microdilution; type: cell-based; details: data not shown
Description: as §2, §3

VIM-2 = molecular target: T1, VIM-2 (Escherichia coli, UniProt Q5U7L7); assay: Fluorogenic β-lactamase inhibition assay (FC-5 substrate), VIM-2; type: biochemical
T1 construct: made in house; host or cells: E. coli
Description: as §1
In brief IC50 values were determined by preincubation of the appropriate amount of enzyme with the cyclic boronates in the assay buffers for 10 min at room temperature prior to the initiation of the assay by the addition of the appropriate substrate. The enzyme concentrations used are the following: 1 nM BcII, 100 nM VIM-2, 10 nM IMP-1, 10 nM NDM-1, 1 nM SPM-1, 1 nM TEM-1, 1 nM OXA-10, 2.5 nM CphA, 4 μM PBP 3 and 5 μM PBP 5; note that the final concentrations are stated. The assay buffers used are the following: 50 mM HEPES, pH 7.2 supplemented with 1 μg BSA, 1 μg ZnSO4 and 0.01% Triton for BcII, VIM-2, IMP-1, NDM-1 and SPM-1, 15 mM MES, pH 6.5 for CphA, 50 mM HEPES, pH 7.2 supplemented with 200 mM NaCl and 0.01% Triton 100 for TEM-1, 100 mM sodium phosphate, pH 7.2 supplemented with 50 mM NaHCO3 and 0.01% Triton 100 for OXA-10 and 50 mM HEPES, pH 7.2 supplemented with 200 mM NaCl and 0.01% Triton 100 for PBP 3 and PBP 5. The amount of substrates used is the following: 5 μM for BcII, VIM-2, IMP-1, NDM-1 and SPM-1, 10 μM for TEM-1 and OXA-10, 125 μM for CphA and 25 μM for PBP 3 and PBP 5; note that the final concentrations are stated.
The experiments were performed using a PHERAstar FS microplate reader (BMG Labtech) at room temperature (24–25 °C). All enzymes and inhibitors were prepared in the specific assay buffer. The kinetic values in this study are the means from at least three independent measurements; at least nine different concentrations of the inhibitor were used to determine the kinetic parameters (IC50). The IC50 values were determined using the software package Graph Prism 5.

M67C NDM-1, sequence (C7C422 29-270 M67C): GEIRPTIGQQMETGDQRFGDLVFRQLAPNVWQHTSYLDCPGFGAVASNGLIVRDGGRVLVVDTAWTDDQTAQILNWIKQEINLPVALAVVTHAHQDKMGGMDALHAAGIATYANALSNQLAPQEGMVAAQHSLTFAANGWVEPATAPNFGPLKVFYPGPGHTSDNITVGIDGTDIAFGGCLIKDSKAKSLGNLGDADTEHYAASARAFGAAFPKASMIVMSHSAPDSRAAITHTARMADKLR

NCc1ccc(C(=O)N[C@H]2Cc3cccc(C(=O)O)c3O[B-]2(O)O)cc1 [compound 2]
binding to the active site by 19F NMR titration (M67C NDM-1): tight binding | MIC (E. coli IR60): > 128 µg/mL | MIC [1]: > 128 µg/mL | MIC [2]: > 128 µg/mL | MIC (K. pneumoniae Ecl8 pSU18): > 128 µg/mL | MIC (E. coli IR10): > 128 µg/mL | antibacterial activity of 2 alone (highest concentration without activity) (K. pneumoniae NCTC 5055): > 128 µg/mL | antibacterial activity of 2 alone (highest concentration without activity) (E. coli ATCC 25922): > 128 µg/mL | pIC50 (VIM-2): 8.5 | IC50 (VIM-2; 10 min preincubation): 3 nM
